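How tested: cells in 96-well plates exposed to compound for 48 hours at five concentrations. TGI is the concentration that stops growth completely.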 Where a SMILES comes first, the peptide text is derived from it. [ ]: non-standard residue; d: D form. The star is where a group is joined. ξ: configuration not given here. ξHyp = O=C(O)C1CC(O)CN1; Cbz = O=C(OCc1ccccc1)*
Tests used:
Test in all cases: NCI anticancer screen, dose series, 48 h
[1] = test system: UACC-257 melanoma
[2] = test system: NCI-H23 lung
[3] = test system: HOP-62 NSCLC
[4] = test system: T-47D breast
[5] = test system: SNB-75 CNS
[6] = test system: SW-620 colon
[7] = test system: MDA-MB-231 breast
[8] = test system: CCRF-CEM leukemia
[9] = test system: HCC-2998 colon
[10] = test system: SF-295 CNS
[11] = test system: MDA-MB-435
[12] = test system: UO-31 renal
[13] = test system: NCI/ADR-RES ovarian
[14] = test system: U251 CNS
[15] = test system: HCT-116 colon
[16] = test system: SNB-19 CNS
[17] = test system: EKVX NSCLC
[18] = test system: OVCAR-3 ovarian
[19] = test system: DU-145 prostate
[20] = test system: MCF7 breast
[21] = test system: NCI-H522 lung
[22] = test system: IGROV1 ovarian
[23] = test system: M14 melanoma
[24] = test system: KM12 colon
[25] = test system: SF-268 CNS
[26] = test system: K-562 leukemia
[27] = test system: BT-549 breast
[28] = test system: HT29 colon
[29] = test system: UACC-62 melanoma
[30] = test system: MDA-N
[31] = test system: HL-60(TB) leukemia
[32] = test system: PC-3 prostate
[33] = test system: ACHN renal
[34] = test system: RPMI-8226 leukemia
[35] = test system: OVCAR-5 ovarian
[36] = test system: TK-10 renal
[37] = test system: SK-OV-3 ovarian
[38] = test system: OVCAR-8 ovarian
[39] = test system: MOLT-4 leukemia
[40] = test system: OVCAR-4 ovarian
[41] = test system: 786-0 renal
[42] = test system: MALME-3M melanoma
[43] = test system: SK-MEL-28 melanoma
[44] = test system: A498 renal
[45] = test system: LOX IMVI melanoma
[46] = test system: SR leukemia
[47] = test system: HS 578T breast
[48] = test system: RXF 393 renal
[49] = test system: COLO 205 colon
[50] = test system: HCT-15 colon
[51] = test system: NCI-H226 lung
[52] = test system: SN12C renal
[53] = test system: NCI-H460 lung
[54] = test system: SK-MEL-5 melanoma
[55] = test system: SK-MEL-2 melanoma
[56] = test system: A549 NSCLC
[57] = test system: SF-539 CNS
[58] = test system: HOP-92 NSCLC
[59] = test system: CAKI-1 renal

Measured: TGI

NC(=O)CNC(=O)C1CC(O)CN1C(=O)OCc1ccccc1 (stereo unspecified) (Cbz-[ξHyp]-Gly-NH2)
not listed: [57] | [58] | [59]
> 100 µM: all other assays above

O=C1CC2(CCC(O)(c3ccco3)C(C(=O)c3ccco3)C2)C(=O)c2ccccc2N1 (stereo unspecified)
57 µM: [40]
81.7 µM: [4]
not listed: [8] | [16] | [21] | [24] | [33] | [34] | [39] | [41] | [43]
> 100 µM: all other assays above
